In publication PMC7990224 (PLoS Pathogens, 2021):
Several values for one entry are separate records, joined by “and”; a condition that tells them apart may be missing. Equal values may be shown once.

Tested on: SARS-CoV-2 GFP/ΔN trVLP
Assay type: cell-based

Compound: CC(C)c1nc(CN(C)C(=O)N[C@H](C(=O)N[C@@H](Cc2ccccc2)C[C@H](O)[C@H](Cc2ccccc2)NC(=O)OCc2cncs2)C(C)C)cs1 [Ritonavir]
- IC50: 7.54 µM

Compound: CCC(CC)COC(=O)[C@H](C)N[P@](=O)(OC[C@H]1O[C@@](C#N)(c2ccc3c(N)ncnn23)[C@H](O)[C@@H]1O)Oc1ccccc1 [Remdesivir]
- IC50: 0.0625 µM

Compound: Cc1cccc(C)c1OCC(=O)N[C@@H](Cc1ccccc1)[C@@H](O)C[C@H](Cc1ccccc1)NC(=O)[C@H](C(C)C)N1CCCNC1=O [Lopinavir]
- IC50: 8.7 µM and 8.75 µM

Compound: GC376
- IC50: 4.5 µM
